Experimental data reported in paper PMC12040169 (PLOS Biology, 2025).

Assay: in vitro
Settings: human, hela cells, % viability

SMILES	viability at 28.5 h, 10 µM [%]
CC1=CC(c2ccccc2)N2N=C(NC(=O)CCCC(=O)O)NC2=N1 (stereo not drawn) [CBK287037]	81.1
O=C(O)c1ccccc1C(=O)Nc1c(-c2ccccc2)nc2ccccn12 [CBK287041]	96.2
CC(CC(=O)O)CC(=O)NC1CCN(Cc2ccccc2)CC1 (stereo not drawn) [CBK287042]	91.4
Cc1cccc(N2CCN(C(=O)C3C4CCC(O4)C3C(=O)O)CC2)c1C (stereo not drawn) [CBK287044]	90
O=C(O)CCC1NC(=O)N(C2CCCCC2)C1=O (stereo not drawn) [CBK287046]	77.3
Cc1ccc(-n2nnnc2SCC(=O)O)cc1 [CBK287048]	94.1
COc1ccc(-c2nc3ccccn3c2CN2CCC(C(=O)O)CC2)cc1 [CBK287052]	88.4
CC(C)C1(C)N=C(c2nc3ccccc3cc2C(=O)O)NC1=O (stereo not drawn) [CBK287057]	86.1
Cc1cc(=O)oc2cc(OCC(=O)Nc3cccc(C(=O)O)c3)ccc12 [CBK287058]	85
O=C(O)CCC(=O)N(Cc1ccco1)C1CC(=O)N(c2ccc(F)cc2)C1=O (stereo not drawn) [CBK287059]	92.1
Cc1nc(=O)c(-c2ccccc2)c(C)n1CCCCCC(=O)O [CBK287060]	113
CC(NC(=O)C1C2CCC(CC2)C1C(=O)O)c1ccncc1 (stereo not drawn) [CBK287061]	102
CCCNC(C)C(=O)Nc1c(C)csc1C(=O)O (stereo not drawn) [CBK287064]	113
O=C(O)c1cccc(N2C(=O)C3C4C=CC(CO)(O4)C3C2=O)c1 (stereo not drawn) [CBK287066]	103
O=C(O)/C=C\C(=O)Nc1ccccc1C(=O)N1CCOCC1 [CBK287067]	100
O=C(NC[C@H]1CC[C@H](C(=O)O)CC1)c1cc2ccccc2[nH]1 [CBK287069]	105
O=C(O)CCc1nc(-c2ccc3[nH]ccc3c2)no1 [CBK287070]	99.3
CS(=O)(=O)N1CCCc2cc(C(=O)O)ccc21 [CBK287072]	93
CC(=O)Nc1ccc(NC(=O)[C@H]2CCCC[C@H]2C(=O)O)cc1 [CBK287073]	99.6
CCOC(=O)N1CCN(C(=O)CCC(=O)O)CC1 [CBK287075]	97.3
O=C(O)CCSc1nc(-c2ccccc2)cc(=O)[nH]1 [CBK287076]	102
CC(C)(C)NS(=O)(=O)c1ccc(OCC(=O)O)cc1 [CBK287077]	100
Cc1c(CC(=O)O)c2c(n1Cc1ccc(F)cc1)CCCC2=O [CBK287078]	103

SMILES	viability at 28.5 h, 10 µM [%]
O=C(O)c1[nH]n(-c2ccc(Cl)cc2)c(=O)c1CCO [CBK287079]	101
CC1CCC(C(=O)NC(Cc2ccccc2)C(=O)O)CC1 (stereo not drawn) [CBK287080]	90.5
COc1ccc(OC)c(NC(=O)c2ccccc2C(=O)O)c1 [CBK287082]	86.9
O=C(O)CNC(=O)CNC(=O)C12CC3CC(CC(C3)C1)C2 [CBK287083]	81.4
COc1ccc(S(=O)(=O)N(C)CC(=O)O)cc1 [CBK287086]	85.9
O=C(O)[C@H](Cc1ccccc1)Nc1ncnc2[nH]cnc12 [CBK287090]	87
O=C(NCC1CCCO1)[C@H]1CCCC[C@H]1C(=O)O (stereo partly drawn) [CBK287104]	88.7
CC(C)CNS(=O)(=O)c1ccc(CCC(=O)O)cc1 [CBK287107]	80.9
COc1ccc(OCC(=O)Nc2ccc(C(=O)O)c(Cl)c2)cc1 [CBK287108]	104
Cc1nc(-c2ccccc2)nc2c1c(N)nn2CC(=O)O [CBK287109]	95.1
O=C1CC(c2ccccc2)c2snc(C(=O)O)c2N1 (stereo not drawn) [CBK287111]	90.5
O=C(O)c1ccccc1C(=O)NCCC1=CCCCC1 [CBK287113]	87.8
Cc1ccc(S(=O)(=O)N(CC(=O)O)c2ccc(C(C)C)cc2)cc1 [CBK287116]	85.3
CN(C(=O)c1ccccc1C(=O)O)C1CC(C)(C)NC(C)(C)C1 [CBK287117]	98.2
O=C1CC(c2ccc(C(=O)O)cc2)c2sccc2N1 (stereo not drawn) [CBK287119]	91.9
COc1ccc(-c2cc(C(=O)NCC(=O)O)c(C)o2)cc1OC [CBK287130]	86.7
COc1ccc(C2NC(C(=O)O)CS2)cc1CN1CCOCC1 (stereo not drawn) [CBK287132]	87.4
CC(C)(C)c1oc(C(=O)O)cc1CN1CCCC1 [CBK287136]	84.7
CN1CCN(c2cc3c(cc2F)c(=O)c(C(=O)O)cn3-c2ccc(F)cc2)CC1 [CBK287138]	78.4
CCCOc1ccc(C(CC(=O)O)NS(=O)(=O)c2ccc(F)cc2)cc1 (stereo not drawn) [CBK287139]	102
O=C(O)c1ccc(N2CCCCS2(=O)=O)cc1Cl [CBK287142]	84.5
CC(C)(C)OC(=O)N1CCN(CCC(=O)O)CC1 [CBK287143]	101
COc1cccc(C(=O)N2Cc3ccccc3CC2C(=O)O)c1 (stereo not drawn) [CBK287150]	102

SMILES	viability at 28.5 h, 10 µM [%]
CS(=O)(=O)N(CC(=O)O)c1ccc2c(c1)OCCO2 [CBK287151]	96.6
CCCNS(=O)(=O)c1cc(C(=O)O)ccc1OC [CBK287152]	98
CCCCC(C(=O)O)N1C(=O)c2ccccc2C1=O (stereo not drawn) [CBK287153]	101
Cc1ccccc1OCC(=O)NCc1ccc(C(=O)O)cc1 [CBK287155]	104
O=C(O)CNC(=O)CN1C(=O)c2cc(Cl)c(Cl)cc2C1=O [CBK287156]	92.3
O=C(O)CC1C(=O)NCCN1Cc1c(F)cccc1Cl (stereo not drawn) [CBK287157]	88.6
CCC(NC(=O)c1ccc(C#CC2(O)CCCCC2)cc1)C(=O)O (stereo not drawn) [CBK287160]	96.8
CC(=O)N(C)c1ccc(NC(=O)/C=C/C(=O)O)cc1 [CBK287162]	87
O=C(O)c1cccc(NCC(=O)c2ccccc2)c1 [CBK287163]	88.8
O=C1c2ccccc2NC(C(=O)O)(c2ccccc2)N1c1ccccc1Cl (stereo not drawn) [CBK287169]	81
O=C(O)CCCNS(=O)(=O)/C=C/c1ccccc1 [CBK287170]	85.1
CCOc1ccc(S(=O)(=O)Nc2ccc(C(=O)O)cc2)cc1 [CBK287171]	89.9
O=C(O)c1ccc2c(c1)C(=O)N(c1cccnc1)C2=O [CBK287173]	84.3
O=C(CCCc1c[nH]c2ccccc12)Nc1cccc(C(=O)O)c1 [CBK287175]	104
O=C(O)c1cccnc1SCc1cc2c(cc1Cl)OCO2 [CBK287178]	93.9
CCc1ccccc1NC(=O)CN1CCCCC1C(=O)O (stereo not drawn) [CBK287179]	92.4
O=C(O)c1ccccc1S(=O)(=O)CC(=O)N1CCCCC1 [CBK287180]	89.1
Cc1ccc(C2CCC(C(=O)O)C(C(=O)O)C2)cc1C (stereo not drawn) [CBK287184]	98.2
Nc1nc(-c2ccc(Cl)cc2)c(CC(=O)O)s1 [CBK287188]	80
COc1ccccc1NC(CC(=O)c1ccccc1)C(=O)O (stereo not drawn) [CBK287190]	83.8
O=C(O)CCC(=O)CCC(=O)c1ccc(F)cc1 [CBK287191]	87.3
O=C(O)CCN1C(=O)COc2ccc(Cl)cc21 [CBK287192]	107

Same assay, conditions: human, hela cells, % viability, bulk resorufin, single well

SMILES	viability at 28.5 h, 10 µM [%]
O=C(O)Cn1cc(C(=O)c2ccccc2F)c2ccccc21 [CBK287100]	92.7
